pIC50: −log10 of the molar value.

The term pIC50 denotes the IC50 on a negative log10 scale, so that one unit is a factor of ten. Read a high pIC50 as a low IC50.

Experiment [1] is described as follows: Selectivity ratio of IC50 for PP2A over IC50 for PP1.
Experiment [2] in a line: Inhibition of PP2A.
Experiment [3] can be described thus: Inhibition of PP1.

For `C=C/C(=C/C(=O)C[C@H](C)C[C@@H](C)CC[C@H](O)[C@H](C)C(=O)C[C@@H](O)[C@H](C)[C@@H](C)OC(=O)C[C@@H](C)C1=C(C)C(=O)OC1=O)CC` [TAUTOMYCETIN], in experiment [1], the Ratio IC50 came out at 40.
In the case of `CO[C@H]([C@H](O)CC(=O)[C@@H](C)[C@@H](O)CC[C@@H](C)[C@@H]1O[C@]2(CC[C@@H](C)[C@H](CC[C@H](C)C(C)=O)O2)CC[C@@H]1C)[C@H](OC(=O)C[C@@H](O)C1=C(C)C(=O)OC1=O)C(C)C` [TAUTOMYCIN], the negative-log IC50 (pIC50) in experiment [2] and in experiment [3] was 7.66 in each case.

The values above are taken from ChEMBL document CHEMBL1152336, “Characterization of the tautomycetin biosynthetic gene cluster from Streptomyces griseochromogenes provides new insight into dialkylmaleic anhydride biosynthesis” (J Nat Prod, 2009).
